The target in one test is T1, PI3K beta (Homo sapiens, UniProt P42338).
T1 construct: for the full-length p110-b subunit are generated and fused by overlapping PCR; p85(iSH2) fusion partner (see partner chain) (N); His tag (C); made in house; host or cells: baculovirus; Tn5 (Trichoplusia ni) or TiniPro insect cells
The test is described as follows: PI3K beta kinase assay (Kinase-Glo luminescence). The format is biochemical. In short, it runs like this:
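Residual ATP after a 60 min room-temperature reaction is quantified by Kinase-Glo luminescence. Enzyme: 25 nM BV-949 (p85 iSH2–linker–full-length p110β); substrates 1 μM ATP, 10 μg/mL PI; buffer Tris pH 7.5, MgCl2, NaCl, CHAPS, DTT. Eight concentrations per compound, four-parameter logistic IC50.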
(Kinase-Glo reads ATP consumption through a luciferase reaction.)

For another test, the target named is T2, PI3K delta (Homo sapiens, UniProt O00329).
T2 construct: for the full-length p110-d subunit are generated and fused by overlapping PCR; p85(iSH2) fusion partner (see partner chain) (N); His tag (C); made in house; host or cells: baculovirus; Tn5 (Trichoplusia ni) or TiniPro insect cells
The test is described as follows: PI3K delta kinase assay (Kinase-Glo luminescence). The format is biochemical. In short, it runs like this:
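ATP 1 μM, PI 10 μg/mL, PI3Kδ construct BV1060 10 nM (final); 10 mM Tris pH 7.5, 3 mM MgCl2, 50 mM NaCl, 0.05% CHAPS, 1 mM DTT; 60 min RT; Kinase-Glo stop, luminescence.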

For test [1], the system named is PKB Ser473 phosphorylation in Rat1-myr-HA-p110 alpha cells. The test is described as follows: Reverse protein array assay, PKB Ser473 phosphorylation in Rat1-myr-p110 alpha cells. It counts as cell-based. As to conditions: 0.5 h, pAkt Ser473, 30 minutes compound incubation, read-out: p-PKB IC50. In short, it runs like this:
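Rat1 cells expressing myristoylated HA-tagged p110 alpha, beta or delta were plated for at least 20 h, then exposed to 8-step serial compound dilutions (0.2% DMSO final) for 30 min at 37 °C. Lysates were spotted at four dilutions on protein microarrays, and relative fluorescence intensity of phospho-Ser473 PKB was calculated.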

T2 sequence (O00329 with tags, fused parts or gaps limits assumed): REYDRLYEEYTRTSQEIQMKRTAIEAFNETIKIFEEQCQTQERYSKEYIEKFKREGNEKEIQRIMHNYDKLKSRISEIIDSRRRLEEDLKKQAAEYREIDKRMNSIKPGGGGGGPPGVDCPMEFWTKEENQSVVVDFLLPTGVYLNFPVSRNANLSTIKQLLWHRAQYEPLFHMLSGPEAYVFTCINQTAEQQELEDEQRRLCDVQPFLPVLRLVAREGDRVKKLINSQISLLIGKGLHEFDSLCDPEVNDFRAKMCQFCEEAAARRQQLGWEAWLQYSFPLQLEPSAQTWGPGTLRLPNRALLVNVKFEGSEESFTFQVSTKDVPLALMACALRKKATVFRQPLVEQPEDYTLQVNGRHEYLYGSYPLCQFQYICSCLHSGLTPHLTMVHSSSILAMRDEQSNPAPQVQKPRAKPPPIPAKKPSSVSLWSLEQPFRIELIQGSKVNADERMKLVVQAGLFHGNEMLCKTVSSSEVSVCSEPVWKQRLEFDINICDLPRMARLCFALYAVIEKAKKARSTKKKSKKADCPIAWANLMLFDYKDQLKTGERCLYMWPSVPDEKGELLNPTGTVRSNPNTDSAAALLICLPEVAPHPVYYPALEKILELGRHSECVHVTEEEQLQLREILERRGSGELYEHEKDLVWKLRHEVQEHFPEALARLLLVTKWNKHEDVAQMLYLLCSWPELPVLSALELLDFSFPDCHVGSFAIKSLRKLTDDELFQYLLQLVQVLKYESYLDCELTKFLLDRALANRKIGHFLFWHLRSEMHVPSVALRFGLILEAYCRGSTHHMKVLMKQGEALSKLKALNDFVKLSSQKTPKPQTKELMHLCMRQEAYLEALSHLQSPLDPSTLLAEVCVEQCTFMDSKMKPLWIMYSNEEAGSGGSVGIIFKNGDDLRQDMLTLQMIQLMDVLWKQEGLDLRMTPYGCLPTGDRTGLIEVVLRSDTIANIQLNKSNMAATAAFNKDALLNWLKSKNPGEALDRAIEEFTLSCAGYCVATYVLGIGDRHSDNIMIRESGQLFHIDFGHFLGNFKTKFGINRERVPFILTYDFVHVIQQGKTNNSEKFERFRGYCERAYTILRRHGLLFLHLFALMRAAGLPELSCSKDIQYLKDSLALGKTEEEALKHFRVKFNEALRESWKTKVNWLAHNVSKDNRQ
T1 sequence (P42338 with tags, fused parts or gaps limits assumed): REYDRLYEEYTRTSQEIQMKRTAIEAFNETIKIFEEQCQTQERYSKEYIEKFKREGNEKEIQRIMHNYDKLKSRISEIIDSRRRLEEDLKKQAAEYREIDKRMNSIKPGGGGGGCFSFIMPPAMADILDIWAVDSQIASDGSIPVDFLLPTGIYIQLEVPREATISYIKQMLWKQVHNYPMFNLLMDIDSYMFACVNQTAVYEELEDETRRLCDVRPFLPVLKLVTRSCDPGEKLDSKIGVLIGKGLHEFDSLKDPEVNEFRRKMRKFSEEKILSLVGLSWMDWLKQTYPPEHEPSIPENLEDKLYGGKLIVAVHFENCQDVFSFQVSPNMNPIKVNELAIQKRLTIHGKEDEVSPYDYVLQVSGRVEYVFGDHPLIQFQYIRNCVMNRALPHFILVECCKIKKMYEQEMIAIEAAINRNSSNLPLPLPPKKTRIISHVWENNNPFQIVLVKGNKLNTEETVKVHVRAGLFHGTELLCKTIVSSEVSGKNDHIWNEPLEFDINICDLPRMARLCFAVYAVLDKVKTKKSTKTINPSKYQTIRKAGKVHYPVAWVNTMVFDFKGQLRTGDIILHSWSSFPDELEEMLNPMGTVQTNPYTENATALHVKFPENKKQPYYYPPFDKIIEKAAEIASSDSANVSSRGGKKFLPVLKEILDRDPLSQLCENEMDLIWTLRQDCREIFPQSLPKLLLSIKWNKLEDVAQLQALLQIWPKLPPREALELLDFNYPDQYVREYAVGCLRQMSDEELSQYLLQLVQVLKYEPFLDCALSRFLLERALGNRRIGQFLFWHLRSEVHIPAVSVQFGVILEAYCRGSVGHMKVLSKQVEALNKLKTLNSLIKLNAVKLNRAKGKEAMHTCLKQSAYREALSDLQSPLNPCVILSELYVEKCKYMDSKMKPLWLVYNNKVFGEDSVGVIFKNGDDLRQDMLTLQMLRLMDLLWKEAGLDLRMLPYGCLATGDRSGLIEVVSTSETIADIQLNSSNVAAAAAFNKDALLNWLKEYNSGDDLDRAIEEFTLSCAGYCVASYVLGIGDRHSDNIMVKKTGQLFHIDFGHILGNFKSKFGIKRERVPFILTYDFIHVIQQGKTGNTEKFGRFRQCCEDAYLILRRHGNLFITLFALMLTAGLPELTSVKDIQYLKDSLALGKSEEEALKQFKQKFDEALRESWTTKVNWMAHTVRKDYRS

As a reminder, the IC50 is the point on the concentration scale where inhibition reaches its midpoint. In the case of `Cc1nn(C)cc1-n1c(=S)n(C)c2cnc3ccc(-c4cccnc4)cc3c21` [Example 128.1, 1-(1,3-Dimethyl-1H-pyrazol-4-yl)-3-methyl-8-pyridin-3-yl-1,3-dihydro-imidazo[4,5-c]quinoline-2-thione], the IC50 on PI3K beta was 35 nM; at PI3K delta, 22 nM; in test [1], 5 nM.
The matching figures for `COc1ncc(-c2ccc3ncc4c(c3c2)n(-c2cc(C)nn2C)c(=O)n4C)c(OC)n1` [Example 234.4, 8-(2,4-Dimethoxy-pyrimidin-5-yl)-1-(2,5-dimethyl-2H-pyrazol-3-yl)-3-methyl-1,3-dihydro-imidazo[4,5-c]quinolin-2-one]: 359 nM, 19 nM and 17 nM.
The matching figures for `Cc1nn(C(C)C)cc1-n1c(=O)n(C)c2cnc3ccc(-c4cnc5c(c4)COC(=O)N5C)cc3c21` [Example 170, 1-(1-Isopropyl-3-methyl-1H-pyrazol-4-yl)-3-methyl-8-(1-methyl-2-oxo-1,4-dihydro-2H-pyrido[2,3-d][1,3]oxazin-6-yl)-1,3-dihydro-imidazo[4,5-c]quinolin-2-one]: 395 nM, 23 nM and 268 nM.
With `CCN(CC)c1cncc(-c2ccc3ncc4c(c3c2)n(-c2cn(C)nc2C)c(=O)n4C)c1` [Example 95, 8-(5-Diethylamino-pyridin-3-yl)-1-(1,3-dimethyl-1H-pyrazol-4-yl)-3-methyl-1,3-dihydro-imidazo[4,5-c]quinolin-2-one], the IC50 at PI3K beta was 41 nM; on PI3K delta it was 24 nM; in test [1], < 5 nM.
On the same counts, the results for `CCn1cc(-n2c(=O)n(C)c3cnc4ccc(-c5cnc(N)c(Cl)c5)cc4c32)c(C)n1` [Example 148.3, 8-(6-Amino-5-chloro-pyridin-3-yl)-1-(1-ethyl-3-methyl-1H-pyrazol-4-yl)-3-methyl-1,3-dihydro-imidazo[4,5-c]quinolin-2-one] are 3 nM, 13 nM and < 5 nM.
As to `Cc1nn(C)cc1-n1c(=O)n(C)c2cnc3ccc(-c4ccc(N5CCCC5)nc4)cc3c21` [Example 97, 1-(1,3-Dimethyl-1H-pyrazol-4-yl)-3-methyl-8-(6-pyrrolidin-1-yl-pyridin-3-yl)-1,3-dihydro-imidazo[4,5-c]quinolin-2-one], the IC50 amounted to 236 nM at PI3K delta and 7 nM in test [1].
Take `[2H]C([2H])([2H])OCc1ncc(-c2ccc3ncc4c(c3c2)n(-c2cn(C)nc2C)c(=O)n4C)cc1OCC` [Example 198, 1-(1,3-Dimethyl-1H-pyrazol-4-yl)-8-(5-ethoxy-6-trideuteromethoxymethyl-pyridin-3-yl)-3-methyl-1,3-dihydro-imidazo[4,5-c]quinolin-2-one]: the IC50 at PI3K beta was 32 nM; on PI3K delta, 7 nM; in test [1], 28 nM.
On the same counts, the results for `Cc1cc(-n2c(=O)n(C)c3cnc4ccc(-c5cnc(N)c(C(F)(F)F)c5)cc4c32)n(C)n1` [Example 25.6, 8-(6-Amino-5-trifluoromethyl-pyridin-3-yl)-1-(2,5-dimethyl-2H-pyrazol-3-yl)-3-methyl-1,3-dihydro-imidazo[4,5-c]quinolin-2-one] are 133 nM, 32 nM and 8 nM.
The matching figures for `CCn1cc(-n2c(=O)n(C)c3cnc4ccc(-c5ccc(OC)c(OC)c5)nc4c32)c(C)n1` [Example 254, 8-(3,4-Dimethoxy-phenyl)-1-(1-ethyl-3-methyl-1H-pyrazol-4-yl)-3-methyl-1,3-dihydro-1,3,5,9-tetraaza-cyclopenta[a]naphthalen-2-one]: 62 nM, 26 nM and 30 nM.
On the same counts, the results for `CC(C)Oc1cncc(-c2ccc3ncc4c(c3c2)n(-c2cn(C)nc2Cl)c(=O)n4C)c1` [Example 58.2, 1-(3-Chloro-1-methyl-1H-pyrazol-4-yl)-8-(5-isopropoxy-pyridin-3-yl)-3-methyl-1,3-dihydro-imidazo[4,5-c]quinolin-2-one] are 5 nM, 4 nM and 9 nM.
On to `CNc1ncc(-c2ccc3ncc4c(c3c2)n(-c2cn(C)nc2Cl)c(=O)n4C)cc1C` [Example 119, 1-(3-Chloro-1-methyl-1H-pyrazol-4-yl)-3-methyl-8-(5-methyl-6-methylamino-pyridin-3-yl)-1,3-dihydro-imidazo[4,5-c]quinolin-2-one], for which the IC50 came to 20 nM at PI3K beta, 9 nM on PI3K delta and 6 nM in test [1].
On the same counts, the results for `CCOCc1cc(-c2ccc3ncc4c(c3c2)n(-c2cn(C(C)C)nc2C)c(=O)n4C)cnc1N` [Example 166.3, 8-(6-Amino-5-ethoxymethyl-pyridin-3-yl)-1-(1-isopropyl-3-methyl-1H-pyrazol-4-yl)-3-methyl-1,3-dihydro-imidazo[4,5-c]quinolin-2-one] are 81 nM, 6 nM and 40 nM.
On to `CCNC(=O)c1cc(-c2ccc3ncc4c(c3c2)n(-c2cn(C(C)C)nc2C)c(=O)n4C)cnc1N` [Example 227, 2-Amino-N-ethyl-5-[1-(1-isopropyl-3-methyl-1H-pyrazol-4-yl)-3-methyl-2-oxo-2,3-dihydro-1H-imidazo[4,5-c]quinolin-8-yl]-nicotinamide], for which the IC50 came to 287 nM at PI3K beta, 26 nM at PI3K delta and 136 nM in test [1].
On the same counts, the results for `CCNc1ncc(-c2ccc3ncc4c(c3c2)n(-c2cn(C)nc2C)c(=O)n4C)cc1C(F)(F)F` [Example 145.2, 1-(1,3-Dimethyl-1H-pyrazol-4-yl)-8-(6-ethylamino-5-trifluoromethyl-pyridin-3-yl)-3-methyl-1,3-dihydro-imidazo[4,5-c]quinolin-2-one] are 50 nM, 9 nM and 9 nM.
For `CCn1cc(-n2c(=O)n(C)c3cnc4ccc(-c5cncc(C(C)(C)C#N)c5)cc4c32)c(C)n1` [Example 220.2, 2-{5-[1-(1-Ethyl-3-methyl-1H-pyrazol-4-yl)-3-methyl-2-oxo-2,3-dihydro-1H-imidazo[4,5-c]quinolin-8-yl]-pyridin-3-yl}-2-methyl-propionitrile], the results for the IC50 (on PI3K beta; at PI3K delta; in test [1]) were 41 nM, 7 nM and 19 nM, respectively.
On the same counts, the results for `COc1ccc(-c2ccc3ncc4c(c3c2)n(-c2cn(C)nc2C)c(=S)n4C)cc1OC` [Example 128.2, 8-(3,4-Dimethoxy-phenyl)-1-(1,3-dimethyl-1H-pyrazol-4-yl)-3-methyl-1,3-dihydro-imidazo[4,5-c]quinoline-2-thione] are 17 nM, 11 nM and < 5 nM.
On the same counts, the results for `Cc1nn(C(C)C)cc1-n1c(=O)n(C)c2cnc3ccc(-c4cnc(Cl)c(N)c4)cc3c21` [Example 152.1, 8-(5-Amino-6-chloro-pyridin-3-yl)-1-(1-isopropyl-3-methyl-1H-pyrazol-4-yl)-3-methyl-1,3-dihydro-imidazo[4,5-c]quinolin-2-one] are 79 nM, 8 nM and 7 nM.
The matching figures for `Cc1nn(C)cc1-n1c(=O)n(C)c2cnc3ccc(-c4cccc(NS(C)(=O)=O)c4)cc3c21` [Example 47, N-{3-[1-(1,3-dimethyl-1H-pyrazol-4-yl)-3-methyl-2-oxo-2,3-dihydro-1H-imidazo[4,5-c]quinolin-8-yl]-phenyl}-methanesulfonamide]: 811 nM, 178 nM and 73 nM.
On to `CNS(=O)(=O)c1cccc(-c2ccc3ncc4c(c3c2)n(-c2cn(C)nc2C)c(=O)n4C)c1` [Example 39, 3-[1-(1,3-Dimethyl-1H-pyrazol-4-yl)-3-methyl-2-oxo-2,3-dihydro-1H-imidazo[4,5-c]quinolin-8-yl]-N-methyl-benzenesulfonamide], for which the IC50 on PI3K beta is 13 nM; on PI3K delta, 3 nM; in test [1], 35 nM.
Take `Cc1nn(C)cc1-n1c(=O)n(C)c2cnc3ccc(-c4cnc(N)c(C(F)(F)F)c4)cc3c21` [Example 25.1, 8-(6-Amino-5-trifluoromethyl-pyridin-3-yl)-1-(1,3-dimethyl-1H-pyrazol-4-yl)-3-methyl-1,3-dihydro-imidazo[4,5-c]quinolin-2-one]: the IC50 was found to be 19 nM on PI3K beta, 13 nM on PI3K delta and 5 nM in test [1].
The matching figures for `CNc1ncc(-c2ccc3ncc4c(c3c2)n(-c2cn(C(C)C)nc2C)c(=O)n4C)cc1C(F)(F)F` [Example 144.2, 1-(1-Isopropyl-3-methyl-1H-pyrazol-4-yl)-3-methyl-8-(6-methylamino-5-trifluoromethyl-pyridin-3-yl)-1,3-dihydro-imidazo[4,5-c]quinolin-2-one]: 40 nM, 4 nM and < 5 nM.

(Values after patent US20140005163A1 (NOVARTIS AG, priority 2010, published 2014).)
